According to ChEMBL document CHEMBL1150917, “Chemical constituents from Cassytha filiformis II” (1998):
The source made the active and inactive calls. The calls are words filed in the database; no cut-off is given here.

Key:
Platelet [1] = experiment: Inhibition of ADP-induced platelet aggregation in rabbit platelet at 100 uM relative to control; format: functional, Oryctolagus cuniculus; set-up: scale not given: the % may be the effect or the level left
Platelet [2] = experiment: Inhibition of arachidonic acid-induced platelet aggregation in rabbit platelet at 50 uM relative to control; format: functional, cell-based; settings: Oryctolagus cuniculus
Platelet [3] = experiment: Inhibition of PAF-induced platelet aggregation in rabbit platelet at 100 uM relative to control; format: functional, Oryctolagus cuniculus; set-up: scale not given: the % may be the effect or the level left
Platelet [4] = experiment: Inhibition of collagen-induced platelet aggregation in rabbit platelet at 100 uM relative to control; format: functional, Oryctolagus cuniculus; set-up: scale not given: the % may be the effect or the level left
Platelet [5] = experiment: Inhibition of arachidonic acid-induced platelet aggregation in rabbit platelet at 100 uM relative to control; format: functional, Oryctolagus cuniculus; set-up: scale not given: the % may be the effect or the level left
Platelet [6] = experiment: Inhibition of collagen-induced platelet aggregation in rabbit platelet at 50 uM relative to control; format: functional, cell-based; settings: Oryctolagus cuniculus
Platelet [7] = experiment: Inhibition of PAF-induced platelet aggregation in rabbit platelet at 50 uM relative to control; format: functional, cell-based; settings: Oryctolagus cuniculus
Platelet [8] = experiment: Inhibition of ADP-induced platelet aggregation in rabbit platelet at 50 uM relative to control; format: functional, cell-based; settings: Oryctolagus cuniculus
Platelet [9] = experiment: Inhibition of ADP-induced platelet aggregation in rabbit platelet at 25 uM relative to control; format: functional, Oryctolagus cuniculus; set-up: scale not given: the % may be the effect or the level left
Platelet [10] = experiment: Inhibition of PAF-induced platelet aggregation in rabbit platelet at 25 uM relative to control; format: functional, Oryctolagus cuniculus; set-up: scale not given: the % may be the effect or the level left
Platelet [11] = experiment: Inhibition of arachidonic acid-induced platelet aggregation in rabbit platelet at 25 uM relative to control; format: functional, Oryctolagus cuniculus; set-up: scale not given: the % may be the effect or the level left
Platelet [12] = experiment: Inhibition of collagen-induced platelet aggregation in rabbit platelet at 25 uM relative to control; format: functional, Oryctolagus cuniculus; set-up: scale not given: the % may be the effect or the level left
Platelet [13] = experiment: Inhibition of arachidonic acid-induced platelet aggregation in rabbit platelet at 20 uM relative to control; format: functional, cell-based; settings: Oryctolagus cuniculus

Structure (SMILES) | Activity (Platelet [1]) [%] | Activity (Platelet [2]) | Activity (Platelet [3]) [%] | Activity (Platelet [4]) [%] | Activity (Platelet [5]) [%] | Activity (Platelet [6]) | Activity (Platelet [7]) | Activity (Platelet [8]) | Activity (Platelet [9]) [%] | Activity (Platelet [10]) [%] | Activity (Platelet [11]) [%] | Activity (Platelet [12]) [%] | Activity (Platelet [13])
COc1cc2c(cc1O)C[C@@H]1NCCc3cc4c(c-2c31)OCO4 [ACTINODAPHNINE] | 0 | Active | 0 | 0 | 0 | Active | Active | Active | – | – | – | – | –
CC(=O)Oc1ccccc1C(=O)O [ASPIRIN] | – | – | – | – | – | – | – | – | 77.9 | 90.5 | 0 | 87.8 | –
COc1cc2c(cc1O)C[C@H]1c3c(cc4c(c3-2)OCO4)CCN1C [CASSYTHICINE] | 0 | – | 68.1 | 0 | 0 | – | – | – | – | – | – | – | Active
COC(=O)N1CCc2cc3c(c4c2[C@@H]1Cc1cc(O)c(OC)cc1-4)OCO3 [CATHAFILINE] | – | Active | – | – | 0 | Active | Active | Active | – | – | – | – | –
COC(=O)N1CCc2c(OC)c3c(c4c2[C@@H]1Cc1cc(O)c(OC)cc1-4)OCO3 [CATHAFORMINE] | – | Active | 61.5 | 7.6 | 0 | Active | Active | Active | – | – | – | – | –
COc1cc2c(cc1OC)-c1c3c(c(OC)c4c1[C@H](C2)N(C)CC4)OCO3 [OCOTEINE] | – | – | 87.7 | 0 | 0 | – | – | – | – | – | – | – | –
COc1cc2c(cc1OC)-c1c(OC)c(O)cc3c1[C@H](C2)N(C)CC3 [PREDICENTRINE] | – | – | 74 | 0 | 0 | – | – | – | – | – | – | – | –
